Reference: patent US8796289B2 (AbbVie Inc., priority 2011, dated 2014)

These compounds were tested against GST-tagged-Wee1 kinase (Homo sapiens, UniProt P30291) (assay: Wee1 time-resolved fluorescence equilibrium binding assay (displacement of Oregon Green-labeled ATP-competitive kinase probe)).
Description: Wee1 kinase was assayed using a time-resolved fluorescence equilibrium binding assay monitoring displacement of a rapidly reversible Oregon Green-labeled ATP-competitive kinase probe (N-(2-(2-(2-(4-(4-(5-chloro-4-(2-(1-hydroxycyclobutyl)thiazol-5-yl)-1H-pyrrolo[2,3-b]pyridin-2-yl)phenyl)piperazin-1-yl)ethoxy)ethoxy)ethyl)-2′,7′-difluoro-3′,6′-dihydroxy-3-oxo-3H-spiro[isobenzofuran-1,9′-xanthene]-5-carboxamide) by competitive Wee1 inhibitors.

Chain of GST-tagged-Wee1 kinase (P30291 whole entry): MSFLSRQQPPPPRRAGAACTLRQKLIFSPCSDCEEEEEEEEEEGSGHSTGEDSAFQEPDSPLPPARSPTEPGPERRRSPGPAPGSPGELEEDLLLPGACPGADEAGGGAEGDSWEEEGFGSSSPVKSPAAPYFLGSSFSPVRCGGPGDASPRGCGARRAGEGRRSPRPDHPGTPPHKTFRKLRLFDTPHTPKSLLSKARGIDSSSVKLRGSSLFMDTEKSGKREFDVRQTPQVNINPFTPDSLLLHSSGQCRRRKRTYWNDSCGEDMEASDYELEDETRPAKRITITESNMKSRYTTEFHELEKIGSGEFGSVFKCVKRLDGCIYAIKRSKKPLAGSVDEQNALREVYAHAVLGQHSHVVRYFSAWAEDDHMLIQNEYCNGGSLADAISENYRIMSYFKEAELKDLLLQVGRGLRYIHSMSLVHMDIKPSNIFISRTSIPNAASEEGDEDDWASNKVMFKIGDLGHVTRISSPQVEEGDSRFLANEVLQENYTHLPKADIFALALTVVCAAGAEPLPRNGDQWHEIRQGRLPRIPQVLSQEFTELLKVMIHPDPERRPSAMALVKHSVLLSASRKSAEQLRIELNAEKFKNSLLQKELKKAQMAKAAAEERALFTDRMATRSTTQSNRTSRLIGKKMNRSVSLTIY

Compound | Ki [nM]
CN1CCN(c2ccc(Nc3ncc4c(=O)n(-c5c(Cl)cccc5Cl)nc(-c5cnn(CCN6CCCCC6)c5)c4n3)cc2)CC1 [Example 213, 6-(2,6-dichlorophenyl)-2-{[4-(4-methylpiperazin-1-yl)phenyl]amino}-8-{1-[2-(piperidin-1-yl)ethyl]-1H-pyrazol-4-yl}pyrimido[4,5-d]pyridazin-5(6H)-one] | 0.6
Cc1cccc(Cl)c1-n1nc(C)c2nc(Nc3ccc4c(c3)CN(C)CC4(C)C)ncc2c1=O [Example 498, 6-(2-chloro-6-methylphenyl)-8-methyl-2-[(2,4,4-trimethyl-1,2,3,4-tetrahydroisoquinolin-7-yl)amino]pyrimido[4,5-d]pyridazin-5(6H)-one] | 0.23
CN1Cc2cc(Nc3ncc4c(=O)n(-c5c(Cl)cccc5Cl)nc(-c5ccccn5)c4n3)ccc2C(C)(C)C1 [Example 241, 6-(2,6-dichlorophenyl)-8-(pyridin-2-yl)-2-[(2,4,4-trimethyl-1,2,3,4-tetrahydroisoquinolin-7-yl)amino]pyrimido[4,5-d]pyridazin-5(6H)-one] | 0.1
CN1CCN(c2ccc(Nc3ncc4c(=O)n(-c5c(Cl)cccc5Cl)nc(-c5cccnc5)c4n3)cc2)CC1 [Example 99, 6-(2,6-dichlorophenyl)-2-{[4-(4-methylpiperazin-1-yl)phenyl]amino}-8-(pyridin-3-yl)pyrimido[4,5-d]pyridazin-5(6H)-one] | 0.09
CN1CCc2ccc(Nc3ncc4c(=O)n(-c5ccccc5Cl)nc(-c5cccs5)c4n3)cc2C1 [Example 167, 6-(2-chlorophenyl)-2-[(2-methyl-1,2,3,4-tetrahydroisoquinolin-7-yl)amino]-8-(2-thienyl)pyrimido[4,5-d]pyridazin-5(6H)-one] | 0.4
O=c1c2cnc(Nc3ccc(N4CCNCC4)cc3)nc2c(C(F)F)nn1-c1c(Cl)cccc1Cl [Example 405, 6-(2,6-dichlorophenyl)-8-(difluoromethyl)-2-{[4-(piperazin-1-yl)phenyl]amino}pyrimido[4,5-d]pyridazin-5(6H)-one] | 0.79
CC(=O)c1cccc(-c2nn(-c3c(Cl)cccc3Cl)c(=O)c3cnc(Nc4ccc(N5CCN(C)CC5)cc4)nc23)n1 [Example 175, 8-(6-acetylpyridin-2-yl)-6-(2,6-dichlorophenyl)-2-{[4-(4-methylpiperazin-1-yl)phenyl]amino}pyrimido[4,5-d]pyridazin-5(6H)-one] | 0.2
C=CCn1nc(Cc2ccccc2)c2nc(Nc3ccc(N4CCN(C)CC4)cc3)ncc2c1=O [Example 22] | 700
Cc1ccccc1-n1nc(-c2ccccc2)c2nc(Nc3ccc(N4CCN(C(C)C)CC4)cc3)ncc2c1=O [Example 134, 2-{[4-(4-isopropylpiperazin-1-yl)phenyl]amino}-6-(2-methylphenyl)-8-phenylpyrimido[4,5-d]pyridazin-5(6H)-one] | 0.6
CN1CCN(c2ccc(Nc3ncc4c(=O)n(-c5ccccc5)nc(-c5ccncc5)c4n3)cc2)CC1 [Example 154, 2-{[4-(4-methylpiperazin-1-yl)phenyl]amino}-6-phenyl-8-(pyridin-4-yl)pyrimido[4,5-d]pyridazin-5(6H)-one] | 9
CN1CCN(c2ccc(Nc3ncc4c(=O)n(-c5ccccc5)nc(-c5cccc(Cl)n5)c4n3)cc2)CC1 [Example 73, 8-(6-chloropyridin-2-yl)-2-{[4-(4-methylpiperazin-1-yl)phenyl]amino}-6-phenylpyrimido[4,5-d]pyridazin-5(6H)-one] | 3
C=CCn1nc(-c2cccc(OC)c2)c2nc(Nc3ccc(N4CCN(C)CC4)cc3)ncc2c1=O [Example 63, 6-allyl-8-(3-methoxyphenyl)-2-{[4-(4-methylpiperazin-1-yl)phenyl]amino}pyrimido[4,5-d]pyridazin-5(6H)-one] | 5
CN1CCN(c2ccc(Nc3ncc4c(=O)n(-c5c(Cl)cncc5Cl)nc(-c5ccccn5)c4n3)cc2)CC1 [Example 362, 6-(3,5-dichloropyridin-4-yl)-2-{[4-(4-methylpiperazin-1-yl)phenyl]amino}-8-(pyridin-2-yl)pyrimido[4,5-d]pyridazin-5(6H)-one] | 1.8
Cc1nn(-c2ncccc2Cl)c(=O)c2cnc(Nc3ccc4c(c3)CC(N(C)C)C4)nc12 (stereo not shown) [Example 367, 6-(3-chloropyridin-2-yl)-2-{[2-(dimethylamino)-2,3-dihydro-1H-inden-5-yl]amino}-8-methylpyrimido[4,5-d]pyridazin-5(6H)-one] | 3.7
Cc1ccccc1-n1nc(-c2ccco2)c2nc(Nc3ccc(S(=O)(=O)N4CCOCC4)cc3)ncc2c1=O [Example 108, 8-(2-furyl)-6-(2-methylphenyl)-2-{[4-(morpholin-4-ylsulfonyl)phenyl]amino}pyrimido[4,5-d]pyridazin-5(6H)-one] | 150
C=CCn1nc(-c2cccs2)c2nc(Nc3ccc4c(c3)CN(C)CC4)ncc2c1=O [Example 162, 6-allyl-2-[(2-methyl-1,2,3,4-tetrahydroisoquinolin-7-yl)amino]-8-(2-thienyl)pyrimido[4,5-d]pyridazin-5(6H)-one] | 4

Compound | Ki [nM]
CN1CCN(c2ccc(Nc3ncc4c(=O)n(-c5c(Cl)cccc5Cl)nc(-c5cccc(CNC6CCC6)c5)c4n3)cc2)CC1 [Example 158, 8-{3-[(cyclobutylamino)methyl]phenyl}-6-(2,6-dichlorophenyl)-2-{[4-(4-methylpiperazin-1-yl)phenyl]amino}pyrimido[4,5-d]pyridazin-5(6H)-one] | 0.2
Cc1ccccc1-n1nc(-c2ccco2)c2nc(Nc3ccc(N4CCCC4=O)cc3)ncc2c1=O [Example 135, 8-(2-furyl)-6-(2-methylphenyl)-2-{[4-(2-oxopyrrolidin-1-yl)phenyl]amino}pyrimido[4,5-d]pyridazin-5(6H)-one] | 8
O=c1c2cnc(Nc3ccc(N4CCNCC4)cc3)nc2c(-c2ccccn2)nn1-c1ccccn1 [Example 285, 2-{[4-(piperazin-1-yl)phenyl]amino}-6,8-di(pyridin-2-yl)pyrimido[4,5-d]pyridazin-5(6H)-one] | 8.4
Cc1nn(-c2c(Cl)cccc2Cl)c(=O)c2cnc(Nc3ccc(N4CCN(C)CC4)cc3)nc12 [Example 314, 6-(2,6-dichlorophenyl)-8-methyl-2-{[4-(4-methylpiperazin-1-yl)phenyl]amino}pyrimido[4,5-d]pyridazin-5(6H)-one] | 1.2
CN(C)CCn1ccc(-c2nn(-c3c(Cl)cccc3Cl)c(=O)c3cnc(Nc4ccc(N5CCN(C)CC5)cc4)nc23)n1 [Example 240, 6-(2,6-dichlorophenyl)-8-{1-[2-(dimethylamino)ethyl]-1H-pyrazol-3-yl}-2-{[4-(4-methylpiperazin-1-yl)phenyl]amino}pyrimido[4,5-d]pyridazin-5(6H)-one] | 0.5
CN1CCN(c2ccc(Nc3ncc4c(=O)n(C)nc(C5CC(F)(F)C5)c4n3)cc2)CC1 [Example 187, 8-(3,3-difluorocyclobutyl)-6-methyl-2-{[4-(4-methylpiperazin-1-yl)phenyl]amino}pyrimido[4,5-d]pyridazin-5(6H)-one] | 1800
Cc1nn(-c2ncccc2Cl)c(=O)c2cnc(Nc3ccc4c(c3)CN(C)CC4(C)C)nc12 [Example 365, 6-(3-chloropyridin-2-yl)-8-methyl-2-[(2,4,4-trimethyl-1,2,3,4-tetrahydroisoquinolin-7-yl)amino]pyrimido[4,5-d]pyridazin-5(6H)-one] | 2.9
CCc1nn(-c2c(Cl)cccc2Cl)c(=O)c2cnc(Nc3ccc(N4CCNCC4)cc3)nc12 [Example 409, 6-(2,6-dichlorophenyl)-8-ethyl-2-{[4-(piperazin-1-yl)phenyl]amino}pyrimido[4,5-d]pyridazin-5(6H)-one] | 1
Cc1nn(-c2c(Cl)cccc2Cl)c(=O)c2cnc(Nc3ccc(C4CCNCC4)cc3)nc12 [Example 458, 6-(2,6-dichlorophenyl)-8-methyl-2-{[4-(piperidin-4-yl)phenyl]amino}pyrimido[4,5-d]pyridazin-5(6H)-one] | 0.23
C=CCn1nc(-c2ccco2)c2nc(Nc3ccc(S(=O)(=O)N4CCOCC4)cc3)ncc2c1=O [Example 140, 6-allyl-8-(2-furyl)-2-{[4-(morpholin-4-ylsulfonyl)phenyl]amino}pyrimido[4,5-d]pyridazin-5(6H)-one] | > 3140
C=CCn1nc(-c2ccccc2)c2nc(Nc3ccc4c(c3)CN(C)CC4)ncc2c1=O [Example 230, 2-[(2-methyl-1,2,3,4-tetrahydroisoquinolin-7-yl)amino]-8-phenyl-6-(prop-2-en-1-yl)pyrimido[4,5-d]pyridazin-5(6H)-one] | 5
CC(=O)N1CCN(c2ccc(Nc3ncc4c(=O)n(-c5c(Cl)cccc5Cl)nc(-c5ccccn5)c4n3)cc2)CC1 [Example 374, 2-{[4-(4-acetylpiperazin-1-yl)phenyl]amino}-6-(2,6-dichlorophenyl)-8-(pyridin-2-yl)pyrimido[4,5-d]pyridazin-5(6H)-one] | 0.67
CN1CCN(c2ccc(Nc3ncc4c(=O)n(-c5c(Cl)cccc5Cl)nc(-c5ccc(C(=O)O)cc5)c4n3)cc2)CC1 [Example 290, 4-[6-(2,6-dichlorophenyl)-2-{[4-(4-methylpiperazin-1-yl)phenyl]amino}-5-oxo-5,6-dihydropyrimido[4,5-d]pyridazin-8-yl]benzoic acid] | 0.33
CN1Cc2cc(Nc3ncc4c(=O)n(-c5c(Cl)cccc5Cl)nc(-c5ccn(C)n5)c4n3)ccc2C2(CC2)C1 [Example 153, 6-(2,6-dichlorophenyl)-2-[(2′-methyl-2′,3′-dihydro-1′H-spiro[cyclopropane-1,4′-isoquinolin]-7′-yl)amino]-8-(1-methyl-1H-pyrazol-3-yl)pyrimido[4,5-d]pyridazin-5(6H)-one] | 0.05
C=CCn1nc(CCc2ccccc2)c2nc(Nc3ccc(N4CCN(C)CC4)cc3)ncc2c1=O [Example 7, 6-allyl-2-{[4-(4-methylpiperazin-1-yl)phenyl]amino}-8-(2-phenylethyl)pyrimido[4,5-d]pyridazin-5(6H)-one] | 250
